Some results are limits rather than exact numbers.

In test [1] the target is T1, Testis-specific serine/threonine-protein kinase 1 (Homo sapiens, UniProt Q9BXA7).
T1 sequence (Q9BXA7 whole entry): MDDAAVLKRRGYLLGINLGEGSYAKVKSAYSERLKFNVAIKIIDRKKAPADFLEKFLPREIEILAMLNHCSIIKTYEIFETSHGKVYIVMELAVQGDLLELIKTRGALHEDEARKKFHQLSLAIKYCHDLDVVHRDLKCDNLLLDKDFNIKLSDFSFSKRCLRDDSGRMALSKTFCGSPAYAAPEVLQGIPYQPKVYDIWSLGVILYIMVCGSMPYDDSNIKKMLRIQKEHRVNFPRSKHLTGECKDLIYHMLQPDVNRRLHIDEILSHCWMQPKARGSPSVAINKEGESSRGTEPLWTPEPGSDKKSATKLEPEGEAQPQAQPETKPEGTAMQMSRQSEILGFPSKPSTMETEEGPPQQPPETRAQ
In words: Inhibition of full-length recombinant human His-tagged STK22D expressed in baculovirus expression system by Z'-LYTE assay.

Test [2] deals with T2, MAP kinase-activated protein kinase 5 (Homo sapiens, UniProt Q8IW41).
T2 sequence (Q8IW41 whole entry): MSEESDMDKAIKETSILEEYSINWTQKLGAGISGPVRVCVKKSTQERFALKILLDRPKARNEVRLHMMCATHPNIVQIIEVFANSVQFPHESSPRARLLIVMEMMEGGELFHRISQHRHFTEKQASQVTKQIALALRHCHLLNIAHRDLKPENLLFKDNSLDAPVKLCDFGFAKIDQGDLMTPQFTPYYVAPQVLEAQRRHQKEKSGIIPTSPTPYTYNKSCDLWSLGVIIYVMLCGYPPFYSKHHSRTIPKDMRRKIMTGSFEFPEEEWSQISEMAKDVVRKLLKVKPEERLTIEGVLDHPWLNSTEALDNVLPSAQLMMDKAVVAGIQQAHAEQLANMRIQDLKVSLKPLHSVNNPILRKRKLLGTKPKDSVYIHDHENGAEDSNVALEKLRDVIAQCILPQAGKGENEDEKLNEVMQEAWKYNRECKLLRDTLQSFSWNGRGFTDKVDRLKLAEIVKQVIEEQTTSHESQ
In words: Inhibition of full-length recombinant human His-tagged MAPKAPK5 expressed in baculovirus expression system by Z'-LYTE assay.

Test [3] has as its target T3, Serine/threonine-protein kinase Nek2 (Homo sapiens, UniProt P51955).
T3 sequence (P51955 whole entry): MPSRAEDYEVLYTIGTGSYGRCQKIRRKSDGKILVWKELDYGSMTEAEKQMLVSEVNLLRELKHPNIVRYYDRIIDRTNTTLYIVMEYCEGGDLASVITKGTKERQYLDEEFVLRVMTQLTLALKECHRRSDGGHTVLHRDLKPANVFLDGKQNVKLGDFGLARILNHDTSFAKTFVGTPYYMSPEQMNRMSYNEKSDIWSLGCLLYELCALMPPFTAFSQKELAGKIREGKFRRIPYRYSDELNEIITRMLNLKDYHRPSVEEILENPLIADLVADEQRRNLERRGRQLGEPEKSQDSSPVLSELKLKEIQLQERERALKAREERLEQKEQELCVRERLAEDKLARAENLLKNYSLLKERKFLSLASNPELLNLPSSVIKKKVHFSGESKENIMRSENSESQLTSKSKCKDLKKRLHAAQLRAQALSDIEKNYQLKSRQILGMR
In words: Inhibition of full-length recombinant human His-tagged NEK2 expressed in baculovirus expression system by Z'-LYTE assay.

Test [4] deals with RAF proto-oncogene serine/threonine-protein kinase (Homo sapiens, UniProt P04049, Y340D/Y341D). Briefly: Inhibition of recombinant human GST-tagged RAF1 Y340D/Y341D mutant expressed in baculovirus expression system by Z'-LYTE assay.
RAF proto-oncogene serine/threonine-protein kinase, sequence (P04049 whole entry Y340D/Y341D): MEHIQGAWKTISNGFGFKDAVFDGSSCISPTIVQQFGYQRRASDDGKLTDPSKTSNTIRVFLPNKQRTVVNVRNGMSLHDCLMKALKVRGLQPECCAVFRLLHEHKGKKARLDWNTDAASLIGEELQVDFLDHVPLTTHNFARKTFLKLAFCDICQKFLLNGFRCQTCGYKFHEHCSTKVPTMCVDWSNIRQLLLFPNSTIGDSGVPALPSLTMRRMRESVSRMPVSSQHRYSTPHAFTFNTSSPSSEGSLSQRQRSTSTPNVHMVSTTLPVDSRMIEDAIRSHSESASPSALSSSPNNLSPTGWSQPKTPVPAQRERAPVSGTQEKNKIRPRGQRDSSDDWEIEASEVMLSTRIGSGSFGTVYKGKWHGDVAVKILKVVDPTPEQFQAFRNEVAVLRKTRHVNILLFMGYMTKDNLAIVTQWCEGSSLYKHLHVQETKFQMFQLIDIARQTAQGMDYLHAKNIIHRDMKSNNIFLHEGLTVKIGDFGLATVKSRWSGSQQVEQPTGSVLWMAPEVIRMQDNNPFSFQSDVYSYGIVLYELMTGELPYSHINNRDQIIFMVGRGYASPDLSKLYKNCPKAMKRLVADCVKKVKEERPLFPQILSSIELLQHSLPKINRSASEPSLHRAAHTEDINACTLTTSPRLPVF
Test [5] addresses High affinity nerve growth factor receptor (Homo sapiens, UniProt P04629). In words: Inhibition of recombinant human His-tagged cytoplasmic NTRK1 expressed in baculovirus expression system by Z'-LYTE assay.
The target in test [6] is Tyrosine-protein kinase JAK2 (Homo sapiens, UniProt O60674). Briefly: Inhibition of recombinant human GST-tagged cytoplasmic JAK2 (809 to 1153 residues) expressed in baculovirus expression system by Z'-LYTE assay.
Tyrosine-protein kinase JAK2, sequence (O60674 whole entry, the tested form may be a part): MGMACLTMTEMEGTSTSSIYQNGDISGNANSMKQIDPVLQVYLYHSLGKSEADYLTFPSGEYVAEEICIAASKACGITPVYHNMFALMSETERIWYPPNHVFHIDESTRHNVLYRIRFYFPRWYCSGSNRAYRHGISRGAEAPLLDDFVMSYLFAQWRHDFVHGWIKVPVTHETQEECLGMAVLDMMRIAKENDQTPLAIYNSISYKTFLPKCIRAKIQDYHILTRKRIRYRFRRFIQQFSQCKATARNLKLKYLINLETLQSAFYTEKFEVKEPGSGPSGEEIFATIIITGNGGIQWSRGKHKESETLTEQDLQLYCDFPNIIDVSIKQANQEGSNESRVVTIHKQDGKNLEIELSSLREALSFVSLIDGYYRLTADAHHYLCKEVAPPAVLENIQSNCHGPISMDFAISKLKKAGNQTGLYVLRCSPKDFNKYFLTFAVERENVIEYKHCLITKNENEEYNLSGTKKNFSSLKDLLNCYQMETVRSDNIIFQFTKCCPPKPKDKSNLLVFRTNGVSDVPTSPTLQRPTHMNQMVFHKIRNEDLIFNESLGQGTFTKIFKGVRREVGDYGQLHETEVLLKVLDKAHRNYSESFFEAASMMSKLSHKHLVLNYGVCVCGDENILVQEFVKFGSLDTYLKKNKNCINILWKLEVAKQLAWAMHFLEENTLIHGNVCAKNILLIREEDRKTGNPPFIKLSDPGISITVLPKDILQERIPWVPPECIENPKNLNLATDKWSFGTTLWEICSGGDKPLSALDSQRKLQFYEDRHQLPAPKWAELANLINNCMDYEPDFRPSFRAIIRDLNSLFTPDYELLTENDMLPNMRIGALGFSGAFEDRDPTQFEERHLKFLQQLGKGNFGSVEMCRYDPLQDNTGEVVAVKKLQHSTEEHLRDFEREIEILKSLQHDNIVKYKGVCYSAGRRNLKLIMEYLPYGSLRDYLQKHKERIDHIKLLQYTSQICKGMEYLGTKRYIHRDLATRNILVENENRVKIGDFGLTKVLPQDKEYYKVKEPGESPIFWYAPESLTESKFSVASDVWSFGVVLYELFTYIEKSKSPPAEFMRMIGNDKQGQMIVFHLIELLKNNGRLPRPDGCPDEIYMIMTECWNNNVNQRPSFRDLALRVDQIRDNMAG
The target of test [7] is Serine/threonine-protein kinase PLK1 (Homo sapiens, UniProt P53350). In words: Inhibition of full-length recombinant human His-tagged PLK1 expressed in baculovirus expression system by Z'-LYTE assay.
Serine/threonine-protein kinase PLK1, sequence (P53350 whole entry, the tested form may be a part): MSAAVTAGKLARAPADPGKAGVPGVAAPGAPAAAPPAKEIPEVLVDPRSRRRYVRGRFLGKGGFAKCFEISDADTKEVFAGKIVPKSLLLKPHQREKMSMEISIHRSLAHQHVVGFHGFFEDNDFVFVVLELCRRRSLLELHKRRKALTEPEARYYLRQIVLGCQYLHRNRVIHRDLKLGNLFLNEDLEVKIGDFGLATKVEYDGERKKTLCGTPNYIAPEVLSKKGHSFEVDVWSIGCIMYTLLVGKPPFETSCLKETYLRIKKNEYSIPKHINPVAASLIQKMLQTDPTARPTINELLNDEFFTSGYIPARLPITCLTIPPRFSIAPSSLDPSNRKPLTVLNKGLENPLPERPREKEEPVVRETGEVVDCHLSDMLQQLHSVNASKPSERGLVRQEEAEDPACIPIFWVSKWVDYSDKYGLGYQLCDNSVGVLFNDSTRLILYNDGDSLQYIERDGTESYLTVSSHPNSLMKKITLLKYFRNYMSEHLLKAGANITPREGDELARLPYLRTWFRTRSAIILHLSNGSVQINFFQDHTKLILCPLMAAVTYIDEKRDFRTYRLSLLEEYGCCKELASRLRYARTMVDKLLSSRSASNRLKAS
Test [8] concerns the target Insulin receptor (Homo sapiens, UniProt P06213). Briefly: Inhibition of recombinant human GST-tagged cytoplasmic INSR (1011 to 1382 residues) expressed in baculovirus expression system by Z'-LYTE assay.
The target in test [9] is T4, Dual specificity mitogen-activated protein kinase kinase 6 (Homo sapiens, UniProt P52564).
T4 sequence (P52564 whole entry): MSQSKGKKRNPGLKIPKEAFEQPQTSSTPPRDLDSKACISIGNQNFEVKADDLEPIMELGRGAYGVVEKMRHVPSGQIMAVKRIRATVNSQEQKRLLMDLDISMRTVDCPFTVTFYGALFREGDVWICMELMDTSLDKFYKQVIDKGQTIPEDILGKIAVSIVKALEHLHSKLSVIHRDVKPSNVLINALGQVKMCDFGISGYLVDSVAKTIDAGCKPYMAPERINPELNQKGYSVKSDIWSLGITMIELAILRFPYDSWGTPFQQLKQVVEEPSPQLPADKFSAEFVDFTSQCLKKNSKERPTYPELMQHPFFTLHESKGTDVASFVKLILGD
In words: Inhibition of full-length recombinant human His-tagged MAP2K6 expressed in baculovirus expression system by Z'-LYTE assay.

Test [10] has as its target Mitogen-activated protein kinase 14 (Homo sapiens, UniProt Q16539). In words: Inhibition of full-length recombinant human GST-tagged MAPK14 alpha expressed in Escherichia coli by Z'-LYTE assay.
For test [11], the target named is Ribosomal protein S6 kinase beta-1 (Homo sapiens, UniProt P23443). Briefly: Inhibition of full-length recombinant human GST-tagged RPS6KB1 catalytic domain expressed in baculovirus expression system by Z'-LYTE assay.
Test [12] concerns the target Angiopoietin-1 receptor (Homo sapiens, UniProt Q02763). In words: Inhibition of recombinant human GST-tagged cytoplasmic TEK expressed in baculovirus expression system by Z'-LYTE assay.
Test [13] concerns the target Mitogen-activated protein kinase 8 (Homo sapiens, UniProt P45983). Briefly: Inhibition of full-length recombinant human His-tagged MAPK8 expressed in baculovirus expression system by Z'-LYTE assay.
Test [14] addresses Macrophage colony-stimulating factor 1 receptor (Homo sapiens, UniProt P07333). In words: Inhibition of recombinant human His-tagged cytoplasmic CSF1R expressed in baculovirus expression system by Z'-LYTE assay.
Test [15] concerns the target SRSF protein kinase 1 (Homo sapiens, UniProt Q96SB4). In words: Inhibition of full-length recombinant human His-tagged SRPK1 expressed in baculovirus expression system by Z'-LYTE assay.
The target in test [16] is Epidermal growth factor receptor (Homo sapiens, UniProt P00533). Briefly: Inhibition of recombinant human His-tagged EGFR expressed in mammalian expression system by Z'-LYTE assay.
For test [17], the target named is Vascular endothelial growth factor receptor 2 (Homo sapiens, UniProt P35968). Briefly: Inhibition of recombinant human His-tagged cytoplasmic KDR expressed in baculovirus expression system by Z'-LYTE assay.

Angiopoietin-1 receptor, sequence (Q02763 whole entry): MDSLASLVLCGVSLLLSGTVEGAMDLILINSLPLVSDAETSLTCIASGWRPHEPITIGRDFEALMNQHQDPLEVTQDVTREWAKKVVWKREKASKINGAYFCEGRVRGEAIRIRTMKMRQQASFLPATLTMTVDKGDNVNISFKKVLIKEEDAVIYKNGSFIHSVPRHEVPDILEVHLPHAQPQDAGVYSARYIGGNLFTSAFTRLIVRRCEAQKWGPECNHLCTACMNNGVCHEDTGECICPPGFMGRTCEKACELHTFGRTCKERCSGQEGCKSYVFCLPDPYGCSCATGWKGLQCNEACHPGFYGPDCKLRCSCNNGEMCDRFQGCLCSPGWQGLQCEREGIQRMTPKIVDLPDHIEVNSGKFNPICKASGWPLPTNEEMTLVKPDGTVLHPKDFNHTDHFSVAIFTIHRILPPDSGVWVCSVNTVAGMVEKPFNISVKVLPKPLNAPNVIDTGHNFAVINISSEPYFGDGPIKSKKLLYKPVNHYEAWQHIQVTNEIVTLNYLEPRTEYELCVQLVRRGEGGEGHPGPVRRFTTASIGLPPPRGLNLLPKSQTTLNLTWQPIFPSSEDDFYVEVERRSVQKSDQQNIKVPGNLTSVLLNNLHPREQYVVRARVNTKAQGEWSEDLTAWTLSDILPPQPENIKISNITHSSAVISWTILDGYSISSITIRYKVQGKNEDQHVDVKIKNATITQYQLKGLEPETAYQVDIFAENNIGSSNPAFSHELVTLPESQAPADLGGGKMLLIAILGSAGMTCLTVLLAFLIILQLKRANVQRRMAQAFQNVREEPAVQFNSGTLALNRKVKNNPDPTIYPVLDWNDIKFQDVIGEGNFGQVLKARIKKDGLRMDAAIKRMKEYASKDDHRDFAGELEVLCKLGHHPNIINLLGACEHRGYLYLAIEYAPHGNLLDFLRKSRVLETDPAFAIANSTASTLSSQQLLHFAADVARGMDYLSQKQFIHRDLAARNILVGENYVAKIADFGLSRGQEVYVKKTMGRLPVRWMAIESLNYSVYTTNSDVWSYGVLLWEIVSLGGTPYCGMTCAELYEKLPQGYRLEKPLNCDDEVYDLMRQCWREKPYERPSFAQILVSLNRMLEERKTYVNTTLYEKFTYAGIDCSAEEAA
Mitogen-activated protein kinase 14, sequence (Q16539 whole entry, the tested form may be a part): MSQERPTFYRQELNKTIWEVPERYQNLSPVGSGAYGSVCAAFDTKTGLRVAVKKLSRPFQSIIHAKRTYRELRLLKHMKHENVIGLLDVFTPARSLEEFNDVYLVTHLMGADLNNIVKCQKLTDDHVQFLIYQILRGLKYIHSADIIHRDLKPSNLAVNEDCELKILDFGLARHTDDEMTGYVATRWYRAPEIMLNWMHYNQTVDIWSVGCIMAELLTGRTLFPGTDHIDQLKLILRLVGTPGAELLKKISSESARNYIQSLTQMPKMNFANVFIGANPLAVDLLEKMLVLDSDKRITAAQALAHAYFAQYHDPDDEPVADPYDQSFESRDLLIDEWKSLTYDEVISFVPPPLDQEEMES
Macrophage colony-stimulating factor 1 receptor, sequence (P07333 whole entry): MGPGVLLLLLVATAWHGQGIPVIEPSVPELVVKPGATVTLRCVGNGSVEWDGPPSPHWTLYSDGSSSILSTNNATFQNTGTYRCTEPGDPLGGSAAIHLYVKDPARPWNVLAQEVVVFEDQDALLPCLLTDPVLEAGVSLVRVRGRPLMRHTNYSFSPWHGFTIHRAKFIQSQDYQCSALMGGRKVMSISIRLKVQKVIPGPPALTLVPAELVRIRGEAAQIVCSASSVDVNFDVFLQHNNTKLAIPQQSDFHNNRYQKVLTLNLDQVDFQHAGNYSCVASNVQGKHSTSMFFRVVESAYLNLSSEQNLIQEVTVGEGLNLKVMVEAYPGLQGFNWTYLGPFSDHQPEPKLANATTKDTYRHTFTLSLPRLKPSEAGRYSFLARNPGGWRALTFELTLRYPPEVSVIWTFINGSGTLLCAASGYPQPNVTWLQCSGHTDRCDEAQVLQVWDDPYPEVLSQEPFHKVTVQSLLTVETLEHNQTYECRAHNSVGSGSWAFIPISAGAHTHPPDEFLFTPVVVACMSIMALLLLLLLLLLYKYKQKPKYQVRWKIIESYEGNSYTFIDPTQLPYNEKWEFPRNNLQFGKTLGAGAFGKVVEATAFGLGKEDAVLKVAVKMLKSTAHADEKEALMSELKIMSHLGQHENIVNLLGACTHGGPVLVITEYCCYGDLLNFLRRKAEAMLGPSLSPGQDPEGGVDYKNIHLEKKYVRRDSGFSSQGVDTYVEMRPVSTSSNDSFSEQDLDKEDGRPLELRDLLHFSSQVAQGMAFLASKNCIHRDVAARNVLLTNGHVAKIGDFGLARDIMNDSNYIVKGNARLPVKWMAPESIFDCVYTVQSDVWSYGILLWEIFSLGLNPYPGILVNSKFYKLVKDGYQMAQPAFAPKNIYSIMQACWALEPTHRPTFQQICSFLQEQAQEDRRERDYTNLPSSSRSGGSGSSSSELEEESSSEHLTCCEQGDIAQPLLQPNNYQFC

For `Cn1cc(-c2cnc3c(-c4csc(C(=O)NCC(F)(F)F)c4)cnn3c2)cn1`, the IC50 (commonly the midpoint of a concentration-inhibition curve) was 20 nM in test [1]; 19000 nM in test [2]; above 100000 nM in test [3]; 560 nM in test [4]; 540 nM in test [5]; 1200 nM in [6]. The half-maximal inhibitory concentration (IC50) is above 100000 nM in [7]; above 100000 nM in test [8]; 35000 nM in test [9]; 36000 nM in test [10]; 110 nM in [11]; 4700 nM in [12]. For the same compound, the IC50 is 24000 nM in [13]; 100 nM in [14]; 28000 nM in test [15]; 28000 nM in test [16]; 15 nM in test [17].

With `Cc1sc(C(=O)N[C@@H]2[C@H](N)CCCC2(F)F)cc1-c1cnn2cc(Cl)cnc12`, the IC50 was below 10 nM in [1]; above 100000 nM in test [2]; 13000 nM in [3]; 950 nM in test [4]; 2100 nM in [5]; 4400 nM in test [6]. Besides, the IC50 in test [7] is above 100000 nM; in test [8] it was above 100000 nM; in [9], 3300 nM; in test [10] it was above 100000 nM; in test [11], 1500 nM; in test [12] it was above 100000 nM. For the same compound, the IC50 was 15000 nM in test [13]; 22000 nM in test [14]; 12000 nM in test [15]; above 100000 nM in test [16]; 11000 nM in [17].

Take `O=C(NCC(F)(F)F)c1cc(-c2cnn3cc(-c4ccc(OCCN5CCCCC5)cc4)cnc23)cs1`: the half-maximal inhibitory concentration (IC50) in test [1] is below 10 nM; in test [2], 9600 nM; in test [3], 16000 nM; in test [4] it was 630 nM; in [5], 310 nM; in test [6], 2400 nM. For the same compound, the IC50 in test [7] was determined as 55000 nM; in test [8] it was 55000 nM; in [9] it was 19000 nM; in [10] it was 1200 nM; in test [11], 88 nM; in test [12], 4700 nM. Further, the IC50 in [13] was 2800 nM; in test [14] it was 41 nM; in [15] it was above 100000 nM; in [16] it was 1100 nM; in test [17], below 10 nM.

Consider `Cn1cc(-c2cnc3c(-c4csc(C(=O)N[C@@H]5CCCC[C@@H]5N)c4)cnn3c2)cn1` (racemic), for which the IC50 in [1] was below 1 nM; in test [2], 1400 nM; in test [3], 950 nM; in test [4] it was 48 nM; in test [5], 50 nM; in test [6], 64 nM. Also, the IC50 in test [7] is above 10000 nM; in test [8], above 10000 nM; in test [9], 290 nM; in test [10], 1400 nM; in test [11] it was 8 nM; in [12], 660 nM. Also, the IC50 in test [13] came out at 1200 nM; in test [14] it was 3.3 nM; in [15], 140 nM; in test [16] it was 340 nM; in test [17] it was 3.5 nM.

The record behind these values is ChEMBL document CHEMBL4477252, “Optimization of microtubule affinity regulating kinase (MARK) inhibitors with improved physical properties” (Bioorg Med Chem Lett, 2016).
